Data: PubChem BioAssay (NCI)
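Growth conditions: 96-well plates. Treatment: test compound, 48 hours, 5 concentrations. Analysis: linear interpolation between bracketing concentrations; unreached endpoints set to highest concentration. Abbreviation: GI50, concentration required for 50% inhibition of growth. TGI denotes the concentration required for complete inhibition of growth.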

Columns and labels:
Test in all cases: NCI anticancer screen, dose series, 48 h
HCT-116 colon = system: HCT-116 colon
A498 renal = system: A498 renal
SNB-19 CNS = system: SNB-19 CNS
UACC-62 melanoma = system: UACC-62 melanoma
MALME-3M melanoma = system: MALME-3M melanoma
NCI-H460 lung = system: NCI-H460 lung
OVCAR-3 ovarian = system: OVCAR-3 ovarian
SF-295 CNS = system: SF-295 CNS
UACC-257 melanoma = system: UACC-257 melanoma
SF-539 CNS = system: SF-539 CNS
SK-OV-3 ovarian = system: SK-OV-3 ovarian
786-0 renal = system: 786-0 renal
NCI/ADR-RES ovarian = system: NCI/ADR-RES ovarian
IGROV1 ovarian = system: IGROV1 ovarian
MDA-MB-468 breast = system: MDA-MB-468 breast
RPMI-8226 leukemia = system: RPMI-8226 leukemia
HS 578T breast = system: HS 578T breast
MDA-MB-435 = system: MDA-MB-435
T-47D breast = system: T-47D breast
SNB-75 CNS = system: SNB-75 CNS
CCRF-CEM leukemia = system: CCRF-CEM leukemia
HT29 colon = system: HT29 colon
M14 melanoma = system: M14 melanoma
TK-10 renal = system: TK-10 renal
SK-MEL-28 melanoma = system: SK-MEL-28 melanoma
SK-MEL-5 melanoma = system: SK-MEL-5 melanoma
CAKI-1 renal = system: CAKI-1 renal
COLO 205 colon = system: COLO 205 colon
HCT-15 colon = system: HCT-15 colon
UO-31 renal = system: UO-31 renal
HOP-92 NSCLC = system: HOP-92 NSCLC
SW-620 colon = system: SW-620 colon
SR leukemia = system: SR leukemia
HL-60(TB) leukemia = system: HL-60(TB) leukemia
MOLT-4 leukemia = system: MOLT-4 leukemia
K-562 leukemia = system: K-562 leukemia
DU-145 prostate = system: DU-145 prostate
SN12C renal = system: SN12C renal
MCF7 breast = system: MCF7 breast
EKVX NSCLC = system: EKVX NSCLC
PC-3 prostate = system: PC-3 prostate
BT-549 breast = system: BT-549 breast
U251 CNS = system: U251 CNS
LOX IMVI melanoma = system: LOX IMVI melanoma
OVCAR-5 ovarian = system: OVCAR-5 ovarian
OVCAR-4 ovarian = system: OVCAR-4 ovarian
ACHN renal = system: ACHN renal
SF-268 CNS = system: SF-268 CNS
KM12 colon = system: KM12 colon
NCI-H23 lung = system: NCI-H23 lung
RXF 393 renal = system: RXF 393 renal
MDA-MB-231 breast = system: MDA-MB-231 breast
OVCAR-8 ovarian = system: OVCAR-8 ovarian
SK-MEL-2 melanoma = system: SK-MEL-2 melanoma
A549 NSCLC = system: A549 NSCLC
NCI-H226 lung = system: NCI-H226 lung
HOP-62 NSCLC = system: HOP-62 NSCLC
NCI-H522 lung = system: NCI-H522 lung
HCC-2998 colon = system: HCC-2998 colon

Compound: O=C1Nc2cc(-c3ccc(NS(=O)(=O)c4ccc([N+](=O)[O-])cc4)cc3)ccc2/C1=C/c1ccc[nH]1
- GI50 (HCT-116 colon): 13.2 µM
- TGI (HCT-116 colon): 29 µM
- GI50 (A498 renal): 18.4 µM
- TGI (A498 renal): 50.1 µM
- GI50 (SNB-19 CNS): 16.3 µM
- TGI (SNB-19 CNS): 56.6 µM
- GI50 (UACC-62 melanoma): 10.3 µM
- TGI (UACC-62 melanoma): 29.7 µM
- GI50 (MALME-3M melanoma): 15.7 µM
- TGI (MALME-3M melanoma): 37.4 µM
- GI50 (NCI-H460 lung): 9.97 µM
- TGI (NCI-H460 lung): 32.2 µM
- GI50 (OVCAR-3 ovarian): 13.9 µM
- TGI (OVCAR-3 ovarian): 32.4 µM
- GI50 (SF-295 CNS): 11.4 µM
- TGI (SF-295 CNS): 41.3 µM
- GI50 (UACC-257 melanoma): 11.1 µM
- TGI (UACC-257 melanoma): 44.3 µM
- GI50 (SF-539 CNS): 10.9 µM
- TGI (SF-539 CNS): 23.8 µM
- GI50 (SK-OV-3 ovarian): 18.2 µM
- TGI (SK-OV-3 ovarian): 49.8 µM
- GI50 (786-0 renal): 14.4 µM
- TGI (786-0 renal): 31.1 µM
- GI50 (NCI/ADR-RES ovarian): 14.8 µM
- TGI (NCI/ADR-RES ovarian): 50.9 µM
- GI50 (IGROV1 ovarian): 19.4 µM
- TGI (IGROV1 ovarian): > 100 µM
- GI50 (MDA-MB-468 breast): 0.778 µM
- TGI (MDA-MB-468 breast): 7.33 µM
- GI50 (RPMI-8226 leukemia): 6.15 µM
- TGI (RPMI-8226 leukemia): 73.6 µM
- GI50 (HS 578T breast): 22.5 µM
- TGI (HS 578T breast): > 100 µM
- GI50 (MDA-MB-435): 16.1 µM
- TGI (MDA-MB-435): 42.8 µM
- GI50 (T-47D breast): 4.77 µM
- TGI (T-47D breast): > 100 µM
- GI50 (SNB-75 CNS): 20.4 µM
- TGI (SNB-75 CNS): > 100 µM
- GI50 (CCRF-CEM leukemia): 13.6 µM
- TGI (CCRF-CEM leukemia): > 100 µM
- GI50 (HT29 colon): 14.8 µM
- TGI (HT29 colon): 34 µM
- GI50 (M14 melanoma): 13.8 µM
- TGI (M14 melanoma): 43.1 µM
- GI50 (TK-10 renal): 16.4 µM
- TGI (TK-10 renal): 51.3 µM
- GI50 (SK-MEL-28 melanoma): 12.3 µM
- TGI (SK-MEL-28 melanoma): 28 µM
- GI50 (SK-MEL-5 melanoma): 19.9 µM
- TGI (SK-MEL-5 melanoma): 72.7 µM
- GI50 (CAKI-1 renal): 14.1 µM
- TGI (CAKI-1 renal): 36.6 µM
- GI50 (COLO 205 colon): 16 µM
- TGI (COLO 205 colon): 47.9 µM
- GI50 (HCT-15 colon): 11 µM
- TGI (HCT-15 colon): 33.8 µM
- GI50 (UO-31 renal): 6.74 µM
- TGI (UO-31 renal): > 100 µM
- GI50 (HOP-92 NSCLC): 14.2 µM
- TGI (HOP-92 NSCLC): 39.6 µM
- GI50 (SW-620 colon): 21 µM
- TGI (SW-620 colon): 51.2 µM
- GI50 (SR leukemia): 10.3 µM
- TGI (SR leukemia): > 100 µM
- GI50 (HL-60(TB) leukemia): 27.6 µM
- TGI (HL-60(TB) leukemia): > 100 µM
- GI50 (MOLT-4 leukemia): 8.77 µM
- TGI (MOLT-4 leukemia): > 100 µM
- GI50 (K-562 leukemia): 11.5 µM
- TGI (K-562 leukemia): > 100 µM
- GI50 (DU-145 prostate): 16 µM
- TGI (DU-145 prostate): 33.6 µM
- GI50 (SN12C renal): 14.6 µM
- TGI (SN12C renal): 34.8 µM
- GI50 (MCF7 breast): 1.74 µM
- TGI (MCF7 breast): 14.1 µM
- GI50 (EKVX NSCLC): 2.28 µM
- TGI (EKVX NSCLC): 32.7 µM
- GI50 (PC-3 prostate): 11.6 µM
- TGI (PC-3 prostate): 65.2 µM
- GI50 (BT-549 breast): 10.5 µM
- TGI (BT-549 breast): 34.8 µM
- GI50 (U251 CNS): 13.6 µM
- TGI (U251 CNS): 27.3 µM
- GI50 (LOX IMVI melanoma): 13.7 µM
- TGI (LOX IMVI melanoma): 27.2 µM
- GI50 (OVCAR-5 ovarian): 18.1 µM
- TGI (OVCAR-5 ovarian): 50.2 µM
- GI50 (OVCAR-4 ovarian): 10.9 µM
- TGI (OVCAR-4 ovarian): 92.6 µM
- GI50 (ACHN renal): 12.1 µM
- TGI (ACHN renal): 26.9 µM
- GI50 (SF-268 CNS): 16.4 µM
- TGI (SF-268 CNS): 80.4 µM
- GI50 (KM12 colon): 14.3 µM
- TGI (KM12 colon): 65.6 µM
- GI50 (NCI-H23 lung): 6.59 µM
- TGI (NCI-H23 lung): 26.8 µM
- GI50 (RXF 393 renal): 13.3 µM
- TGI (RXF 393 renal): 31.6 µM
- GI50 (MDA-MB-231 breast): 16.8 µM
- TGI (MDA-MB-231 breast): 38.6 µM
- GI50 (OVCAR-8 ovarian): 15.8 µM
- TGI (OVCAR-8 ovarian): 36.2 µM
- TGI (SK-MEL-2 melanoma): 71.4 µM
- GI50 (A549 NSCLC): 12.1 µM
- TGI (A549 NSCLC): 28.9 µM
- GI50 (NCI-H226 lung): 12.2 µM
- TGI (NCI-H226 lung): 30.1 µM
- GI50 (HOP-62 NSCLC): 18 µM
- TGI (HOP-62 NSCLC): 44.1 µM
- GI50 (NCI-H522 lung): 6.54 µM
- TGI (NCI-H522 lung): 28 µM
- GI50 (HCC-2998 colon): 18.6 µM
- TGI (HCC-2998 colon): > 100 µM
